The values below come from publication PMC8761912, “Cryptosporidium parvum Pyruvate Kinase Inhibitors With in vivo Anti-cryptosporidial Efficacy” (Frontiers in Microbiology, 2022).

The nature of this data set: Solubility. Particulars: DMSO. It is filed as physicochemical.

With `c1ccc(-c2nnc(-c3ccccn3)[nH]2)nc1` [NSC234945, 2-(3-pyridin-2-yl-1H-1,2,4-triazol-5-yl)pyridine], the “solubility in DMSO” value is recorded as “high solubility in DMSO”.
